How the values were obtained:
Test in all cases: relative viability (nuclei count vs DMSO), 5 days (fraction); higher = more cells survive
[1] = tested on: NCI-H2085
Method in brief: (§1)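 Dosing by pin tool came one day after lung cancer cell lines were seeded in 1536-well plates, using either one drug or a fixed anchor-drug dose plus five library-drug doses (not always all listed) in √10 steps. After 5 days, nuclei were counted on 4× images. Relative viability is treated-well nuclei count divided by vehicle-well nuclei count, and values are medians of duplicate plates.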

[2] = tested on: NCI-H2023
Method in brief: as §1

[3] = tested on: COR-L23
Method in brief: as §1

[4] = tested on: NCI-H1651
Method in brief: as §1

[5] = tested on: NCI-H520
Method in brief: as §1

[6] = tested on: HCC-827
Method in brief: as §1

[7] = tested on: EPLC-272H
Method in brief: as §1

[8] = tested on: NCI-H1563
Method in brief: as §1

[9] = tested on: LU99A
Method in brief: as §1

[10] = tested on: NCI-H2087
Method in brief: as §1

[11] = tested on: H3255
Method in brief: as §1

[12] = tested on: NCI-H2405
Method in brief: as §1

[13] = tested on: NCI-H838
Method in brief: as §1

[14] = tested on: NCI-H1395
Method in brief: as §1

[15] = tested on: LCLC-103H
Method in brief: as §1

[16] = tested on: SK-MES-1
Method in brief: as §1

[17] = tested on: HCC-44
Method in brief: as §1

[18] = tested on: NCI-H1944
Method in brief: as §1

[19] = tested on: NCI-H650
Method in brief: as §1

[20] = tested on: EMC-BAC-2
Method in brief: as §1

[21] = tested on: NCI-H1793
Method in brief: as §1

## CCN(CC)CCCCNc1ncc2cc(-c3cc(OC)cc(OC)c3)c(NC(=O)NC(C)(C)C)nc2n1 + Cc1nc(NC(=O)N2CCC[C@H]2C(N)=O)sc1-c1ccnc(C(C)(C)C(F)(F)F)c1 [Alpelisib] (partner 2 µM)
[1]; first compound 0.01 µM
  relative viability: 1.04
[1]; first compound 0.03162 µM
  relative viability: 0.999
[1]; first compound 0.1 µM
  relative viability: 1.02
[1]; first compound 0.3162 µM
  relative viability: 0.983
[1]; first compound 1 µM
  relative viability: 0.907
[2]; first compound 0.01 µM
  relative viability: 0.685
[2]; first compound 0.03162 µM
  relative viability: 0.608
[2]; first compound 0.1 µM
  relative viability: 0.615
[2]; first compound 0.3162 µM
  relative viability: 0.676
[2]; first compound 1 µM
  relative viability: 0.529
[3]; first compound 0.01 µM
  relative viability: 0.819
[3]; first compound 0.03162 µM
  relative viability: 1.02
[3]; first compound 0.1 µM
  relative viability: 1.19
[3]; first compound 0.3162 µM
  relative viability: 0.787
[3]; first compound 1 µM
  relative viability: 0.856
[4]; first compound 0.01 µM
  relative viability: 0.938
[4]; first compound 0.03162 µM
  relative viability: 1
[4]; first compound 0.1 µM
  relative viability: 1.1
[4]; first compound 0.3162 µM
  relative viability: 1.13
[4]; first compound 1 µM
  relative viability: 0.844
[5]; first compound 0.01 µM
  relative viability: 1.07
[5]; first compound 0.03162 µM
  relative viability: 0.898
[5]; first compound 0.1 µM
  relative viability: 1.16
[5]; first compound 0.3162 µM
  relative viability: 0.662
[5]; first compound 1 µM
  relative viability: 0.332
[6]; first compound 0.01 µM
  relative viability: 0.968
[6]; first compound 0.03162 µM
  relative viability: 0.967
[6]; first compound 0.1 µM
  relative viability: 1.02
[6]; first compound 0.3162 µM
  relative viability: 1.16
[6]; first compound 1 µM
  relative viability: 1.02
[7]; first compound 0.01 µM
  relative viability: 0.918
[7]; first compound 0.1 µM
  relative viability: 1.01
[7]; first compound 0.3162 µM
  relative viability: 1.07
[7]; first compound 1 µM
  relative viability: 0.883
[8]; first compound 0.01 µM
  relative viability: 0.849
[8]; first compound 0.03162 µM
  relative viability: 0.96
[8]; first compound 0.1 µM
  relative viability: 0.896
[8]; first compound 0.3162 µM
  relative viability: 0.771
[8]; first compound 1 µM
  relative viability: 0.619
[9]; first compound 0.01 µM
  relative viability: 0.5
[9]; first compound 0.03162 µM
  relative viability: 0.523
[9]; first compound 0.1 µM
  relative viability: 0.55
[9]; first compound 0.3162 µM
  relative viability: 0.666
[9]; first compound 1 µM
  relative viability: 0.575
[10]; first compound 0.01 µM
  relative viability: 1.12
[10]; first compound 0.03162 µM
  relative viability: 1.03
[10]; first compound 0.1 µM
  relative viability: 1.53
[10]; first compound 0.3162 µM
  relative viability: 1.23
[10]; first compound 1 µM
  relative viability: 1.15
[11]; first compound 0.01 µM
  relative viability: 0.788
[11]; first compound 0.03162 µM
  relative viability: 0.71
[11]; first compound 0.1 µM
  relative viability: 0.728
[11]; first compound 0.3162 µM
  relative viability: 0.713
[11]; first compound 1 µM
  relative viability: 0.689
[12]; first compound 0.01 µM
  relative viability: 0.574
[12]; first compound 0.03162 µM
  relative viability: 0.709
[12]; first compound 0.1 µM
  relative viability: 0.814
[12]; first compound 0.3162 µM
  relative viability: 0.862
[12]; first compound 1 µM
  relative viability: 0.72
[13]; first compound 0.01 µM
  relative viability: 1.11
[13]; first compound 0.03162 µM
  relative viability: 0.964
[13]; first compound 0.1 µM
  relative viability: 0.996
[13]; first compound 0.3162 µM
  relative viability: 1.04
[13]; first compound 1 µM
  relative viability: 0.602
[14]; first compound 0.03162 µM
  relative viability: 1.19
[14]; first compound 0.1 µM
  relative viability: 1.07
[14]; first compound 0.3162 µM
  relative viability: 0.802
[14]; first compound 1 µM
  relative viability: 0.637
[15]; first compound 0.01 µM
  relative viability: 1.09
[15]; first compound 0.03162 µM
  relative viability: 0.967
[15]; first compound 0.1 µM
  relative viability: 0.975
[15]; first compound 0.3162 µM
  relative viability: 1.01
[15]; first compound 1 µM
  relative viability: 1.01
[16]; first compound 0.01 µM
  relative viability: 1.12
[16]; first compound 0.03162 µM
  relative viability: 0.934
[16]; first compound 0.1 µM
  relative viability: 0.877
[16]; first compound 0.3162 µM
  relative viability: 1.03
[16]; first compound 1 µM
  relative viability: 0.849
[17]; first compound 0.01 µM
  relative viability: 0.93
[17]; first compound 0.03162 µM
  relative viability: 0.9
[17]; first compound 0.1 µM
  relative viability: 1.12
[17]; first compound 0.3162 µM
  relative viability: 0.87
[17]; first compound 1 µM
  relative viability: 0.772
[18]; first compound 0.01 µM
  relative viability: 0.884
[18]; first compound 0.03162 µM
  relative viability: 0.842
[18]; first compound 0.1 µM
  relative viability: 0.89
[18]; first compound 0.3162 µM
  relative viability: 0.95
[18]; first compound 1 µM
  relative viability: 0.799
[19]; first compound 0.01 µM
  relative viability: 1.04
[19]; first compound 0.03162 µM
  relative viability: 1.04
[19]; first compound 0.1 µM
  relative viability: 1.21
[19]; first compound 0.3162 µM
  relative viability: 1.09
[19]; first compound 1 µM
  relative viability: 0.865
[20]; first compound 0.01 µM
  relative viability: 0.731
[20]; first compound 0.03162 µM
  relative viability: 0.798
[20]; first compound 0.1 µM
  relative viability: 0.811
[20]; first compound 0.3162 µM
  relative viability: 0.804
[20]; first compound 1 µM
  relative viability: 0.688
[21]; first compound 0.01 µM
  relative viability: 0.748
[21]; first compound 0.1 µM
  relative viability: 0.958
[21]; first compound 0.3162 µM
  relative viability: 0.716
[21]; first compound 1 µM
  relative viability: 0.642
